{"source": "patent US20250161317A1", "about": "“MOLIDUSTAT FORMULATIONS AND METHODS OF USE FOR TREATMENT OF ANEMIA IN CATS” (ELANCO US INC., priority 2022, published 2025)", "key": {"[1]": {"tested_on": "cats with anemia associated with CKD", "experiment": "Field study, in-use safety in cats with anemia associated with CKD", "description": "This study was conducted using a single protocol in the United States (US, n=23 clinics) and Europe (EU, n=11 clinics) over a 10 month period. On study day (SD) −7 (±2 days), blood was collected for serum chemistry and hematology from cats that qualified for enrollment. After meeting enrollment criteria, cats were orally treated once daily for at least 28 consecutive days (SD 0 to SD 27) with either the control product (CP [vehicle]) or molidustat. The molidustat was administered orally at a dose of 5 mg/kg body weight (bw) (0.2 mL/kg bw). Blood was collected to assess hematological parameters on SDs 0, 7, 14, 21 and 28 (±2 days for all time points except SD 0). Blood was also collected for evaluating serum chemistry on SD 28 (±2 days), except creatinine. Hematocrit (HCT) and packed cell volumes (PCV, performed at each clinic) were the primary hematological parameters of interest. Individual animal treatment success was evaluated up to and including SD 28±2 using three different criteria, as well as using only the data on SD 28."}, "[2]": {"experiment": "Plasma pharmacokinetic study after single oral administration to fasted and fed cats", "assay_type": "in vivo, cat", "details": "for AUC / AUC(0-t) / Cmax / Tmax: female, European Shorthaired, plasma, po, 3 mg/kg; for AUC / AUC(0-t) / Cmax / Tmax / Clb / MRTint / Vz / t1//2: 3.0 mg molidustat sodium per kg; for AUC / AUC(0-t) / Cmax / Clb / MRTint / Vz / t1//2: geometric mean; for Tmax: median", "description": "Four adult, healthy, female European Shorthaired cats were selected for the study. On the day prior to treatment feed was withdrawn to ensure a fasted prandial state for the oral treatment.\nThe pharmacokinetic profile of the HIF-PHI was determined in plasma of 3 adult, female, healthy European Shorthaired cats with a mean body weight of 3.5 kg (StD=0.41 kg). One animal was removed from the study due to difficult handling of the animal.\n(§1) The animals were treated in a fasted prandial state with the test item at a single oral dose rate of 3.0 mg/kg. After a wash out period of 14 days the animals were treated with the test item at the same dose rate and same administration route, but in a fed prandial state. Frequent blood samplings at fixed intervals were performed over a period of 48 hours after each treatment.\nThe plasma samples were analyzed with regard to their concentrations of molidustat and its metabolite by HPLC using a tandem mass spectrometric detector (AB Sciex API 4000).\nFrom the individual plasma concentration-time-profiles obtained pharmacokinetics (PK) were derived using non-compartmental analyses."}, "[3]": {"tested_on": "cats with anemia associated with CKD", "experiment": "Placebo-controlled field study, efficacy (HCT/PCV) in cats with anemia associated with CKD", "assay_type": "in vivo, cat", "from_the_text": "The objective of this study was to evaluate the safety and efficacy of molidustat to manage anemia associated with chronic kidney disease (CKD) in cats.\nA total of 65 cats were screened at 11 US and 9 EU sites. Twenty-three (23) cats (13 cases from 9 sites in the US and 10 cases from 9 sites in the EU), with nearly equally distributed genders, mostly domestic shorthair breed, ranging in age from 4 to 17 years, and having initial body weights between 2 and 6 kilograms, were randomized and administered one of the two treatments. A total of 21 cats were included in the 28-day efficacy phase."}, "[4]": {"tested_on": "cats", "experiment": "Clinical tolerance after two oral treatments (Example 2)", "assay_type": "in vivo", "details": "two oral treatments at 3.0 mg/kg in cats", "description": "as §1\nPeak and extent of plasma exposure of molidustat was higher if administered orally as sodium salt to cats at fasted prandial state compared to fed prandial state. Metabolized molidustat amounted to approximately 60% in total exposure independent of prandial state."}, "[5]": {"experiment": "Plasma pharmacokinetics, oral bioavailability and dose proportionality after single oral dose", "assay_type": "in vivo, cat", "details": "both sexes, geometric mean (CV)", "description": "(§2) The test item was applied as single oral dose at the expected target dose rate of 5 mg molidustat sodium per kg bw, at 2.5 mg/kg and at 10 mg/kg to healthy adult cats. A single intravenous bolus dose of 5.0 mg/kg was applied for comparison using a suitable reference item (molidustat sodium aqueous solution 2.0% (m/v)).\n(§3) Following a mixed serial/cross-over design, 16 healthy, adult cats (8 neutered males, 8 spayed females) were included in the study and allocated to […]. The animals were between 13.7 and 14.7 months old and weighed between 3.3 and 6.0 kg at start of the in-life phase.\n(§4) The dose rates administered were at means of 2.42 mg/kg, 4.79, and 9.54 mg molidustat sodium per kg for the 0.5×, 1×, 2× dose groups, respectively. The reference item was dosed at an actual mean dose rate of 5.15 mg/kg. Dose rate calculations were based on the body weights determined prior to each study period.\n(§5) Fifteen blood samples were drawn per animal after oral dosing (16 samples/animal after intravenous dosing) following a pre-determined schedule deemed suitable to describe the pharmacokinetic profile of the active substance contained in the test and reference item after single oral or intravenous dosing to cats.\n(§6) Concentrations of the active substance molidustat and its major […] were analyzed by High Performance Liquid Chromatography/Tandem Mass Spectrometry in accordance with method 01469 (Krebber et al., Analytical method for the determination of BAY 85-3934 and its metabolite BAY 116-3348 in plasma by LC-MS/MS, BAG-CS report MR-15/109). The lower limit of quantitation was 5 μg/L for each substance.\n(§7) Pharmacokinetic evaluation of plasma concentration data was based on the observed data using non-compartmental methods and comprised all PK-parameters to adequately describe the absorption, distribution and elimination phase of the active substance and its metabolite after oral or intravenous dosing with the test or reference item. For pharmacokinetic evaluation actual individual dose rates were used to account for the small differences between target and actual dose rates. All animals finished the in-life phase according to schedule."}, "[6]": {"experiment": "Plasma pharmacokinetics after single intravenous bolus dose", "assay_type": "in vivo, cat", "details": "for Vd: read-out: volume of distribution", "description": "as §2, §3, §4, §5, §6, §7"}, "[7]": {"details": "SD 21, baseline-controlled analysis"}, "[8]": {"details": "SD 28, baseline-controlled analysis"}, "[9]": {"details": "both sexes, plasma, 5 mg/kg, single intravenous bolus 5 mg molidustat sodium per kg"}, "[10]": {"details": "female, plasma, iv, 5 mg/kg, females"}, "[11]": {"details": "male, plasma, iv, 5 mg/kg, males"}}, "note": "Like-named read-outs stand apart in the source and are kept apart here.", "data": [{"compound": "O=c1c(-n2ccnn2)c[nH]n1-c1cc(N2CCOCC2)ncn1", "note": "[molidustat, 2-[6-(morpholin-4-yl)pyrimidin-4-yl]-4-(1H-1,2,3-triazol-1-yl)-2,3-dihydro-1H-pyrazol-3-one]", "values": [{"measurement": "treatment related adverse events", "setting": "[1]; alone or with concomitant medications for CKD", "result": "No treatment related adverse events"}, {"measurement": "tolerability of treatment", "setting": "[1]; once daily for 28 days at 5 mg/kg", "result": "well tolerated"}, {"measurement": "AUC", "setting": "[2]; oral to fasted cats", "result": 8420, "unit": "ng·h/mL"}, {"measurement": "AUC(0-t)", "setting": "[2]; oral to fasted cats", "result": 8410, "unit": "ng·h/mL"}, {"measurement": "Cmax", "setting": "[2]; oral to fasted cats", "result": 3130, "unit": "ng/mL"}, {"measurement": "Tmax", "setting": "[2]; oral to fasted cats", "result": 0.67, "unit": "h"}, {"measurement": "AUC", "setting": "[2]; oral to fed cats", "result": 6300, "unit": "ng·h/mL"}, {"measurement": "AUC(0-t)", "setting": "[2]; oral to fed cats", "result": 6280, "unit": "ng·h/mL"}, {"measurement": "Cmax", "setting": "[2]; oral to fed cats", "result": 930, "unit": "ng/mL"}, {"measurement": "Tmax", "setting": "[2]; oral to fed cats", "result": 1, "unit": "h"}, {"measurement": "peak and extent of plasma exposure, fasted compared to fed prandial state", "setting": "[2]; oral as sodium salt, 3.0 mg/kg", "result": "higher"}, {"measurement": "Clb", "setting": "[2]; oral to fasted cats", "result": 6, "unit": "mL/min/kg"}, {"measurement": "MRTint", "setting": "[2]; oral to fasted cats", "result": 3.7, "unit": "h"}, {"measurement": "Vz", "setting": "[2]; oral to fasted cats", "result": 3.74, "unit": "L/kg"}, {"measurement": "t1//2", "setting": "[2]; oral to fasted cats", "result": 7.28, "unit": "h"}, {"measurement": "Clb", "setting": "[2]; oral to fed cats", "result": 8, "unit": "mL/min/kg"}, {"measurement": "MRTint", "setting": "[2]; oral to fed cats", "result": 7.0, "unit": "h"}, {"measurement": "Vz", "setting": "[2]; oral to fed cats", "result": 4.59, "unit": "L/kg"}, {"measurement": "t1//2", "setting": "[2]; oral to fed cats", "result": 6.69, "unit": "h"}, {"measurement": "HCT and PCV levels throughout the continuation phase", "setting": "[3]; 8 cats, 5 mg/kg or intermittent 2.5 mg/kg", "result": "maintained or increased"}, {"measurement": "PCV increase relative to baseline", "setting": "[3]; SD 14, p=0.0167", "result": 2.21, "unit": "%"}, {"measurement": "HCT increase relative to baseline", "setting": "[3]; SD 14, p=0.0643", "result": 1.87, "unit": "%"}, {"measurement": "HCT difference from average baseline", "setting": "[3]; [7]", "result": 3.91, "unit": "%"}, {"measurement": "PCV difference from average baseline", "setting": "[3]; [7]", "result": 3.46, "unit": "%"}, {"measurement": "HCT and PCV results compared to the CP group", "setting": "[3]; SD 21, p-values<0.01", "result": "significantly greater"}, {"measurement": "PCV/HCT in comparison to SD 0", "setting": "[3]; SD 21 and SD 28, once daily for 28 days at 5 mg/kg, anemic cats", "result": "significantly increased"}, {"measurement": "HCT difference from average baseline", "setting": "[3]; [8]", "result": 3.68, "unit": "%"}, {"measurement": "PCV difference from average baseline", "setting": "[3]; [8]", "result": 3.89, "unit": "%"}, {"measurement": "HCT and PCV increases compared to the CP group", "setting": "[3]; SD 28, p<0.061", "result": "approached statistical significance"}, {"measurement": "clinical tolerance", "setting": "[4]", "result": "clinically well tolerated without any clinical signs of intolerance"}, {"measurement": "AUC", "setting": "[5]; 2.5 mg/kg single oral dose", "result": 5600, "unit": "ng·h/mL"}, {"measurement": "Cmax", "setting": "[5]; 2.5 mg/kg single oral dose", "result": 2700, "unit": "ng/mL"}, {"measurement": "Tmax", "setting": "[5]; 2.5 mg/kg single oral dose", "result": 0.5, "unit": "h"}, {"measurement": "half-life", "setting": "[5]; 2.5 mg/kg single oral dose", "result": 5, "unit": "h"}, {"measurement": "AUC", "setting": "[5]; 5.0 mg/kg single oral dose", "result": 12700, "unit": "ng·h/mL"}, {"measurement": "Cmax", "setting": "[5]; 5.0 mg/kg single oral dose", "result": 3830, "unit": "ng/mL"}, {"measurement": "Tmax", "setting": "[5]; 5.0 mg/kg single oral dose", "result": 1, "unit": "h"}, {"measurement": "half-life", "setting": "[5]; 5.0 mg/kg single oral dose", "result": 4.6, "unit": "h"}, {"measurement": "AUC", "setting": "[5]; 10 mg/kg single oral dose", "result": 23500, "unit": "ng·h/mL"}, {"measurement": "Cmax", "setting": "[5]; 10 mg/kg single oral dose", "result": 6730, "unit": "ng/mL"}, {"measurement": "Tmax", "setting": "[5]; 10 mg/kg single oral dose", "result": 1, "unit": "h"}, {"measurement": "half-life", "setting": "[5]; 10 mg/kg single oral dose", "result": 7.1, "unit": "h"}, {"measurement": "clearance", "setting": "[6]; [9]", "result": 5.17, "unit": "mL/min/kg"}, {"measurement": "half-life", "setting": "[6]; both sexes, plasma, 5 mg/kg, single intravenous bolus 5 mg molidustat sodium per kg, read-out: elimination half-life (converted)", "result": 5.91, "unit": "h"}, {"measurement": "Vd", "setting": "[6]; [9]", "result": 2.69, "unit": "L/kg"}, {"measurement": "clearance", "setting": "[6]; [10]", "result": 5.5, "unit": "mL/min/kg"}, {"measurement": "Vd", "setting": "[6]; [10]", "result": 2.96, "unit": "L/kg"}, {"measurement": "clearance", "setting": "[6]; [11]", "result": 5, "unit": "mL/min/kg"}, {"measurement": "Vd", "setting": "[6]; [11]", "result": 2.36, "unit": "L/kg"}, {"measurement": "mean plasma exposure", "setting": "[6]; single intravenous bolus 5 mg molidustat sodium per kg (aqueous solution 2.0%)", "result": 16350, "unit": "ng·h/mL"}]}]}
